Assay results reported in publication PMC9120017, “Inhibition mechanism of the chloride channel TMEM16A by the pore blocker 1PBC” (Nature Communications, 2022).
Read-outs that look alike come from different tables or passages of the source.

Biological target: T1, wild-type mouse TMEM16A (Mus musculus, UniProt Q8BHY3)
T1 construct: expressed in transfected cells; host or cells: HEK293T
T1 sequence (Q8BHY3 1-960): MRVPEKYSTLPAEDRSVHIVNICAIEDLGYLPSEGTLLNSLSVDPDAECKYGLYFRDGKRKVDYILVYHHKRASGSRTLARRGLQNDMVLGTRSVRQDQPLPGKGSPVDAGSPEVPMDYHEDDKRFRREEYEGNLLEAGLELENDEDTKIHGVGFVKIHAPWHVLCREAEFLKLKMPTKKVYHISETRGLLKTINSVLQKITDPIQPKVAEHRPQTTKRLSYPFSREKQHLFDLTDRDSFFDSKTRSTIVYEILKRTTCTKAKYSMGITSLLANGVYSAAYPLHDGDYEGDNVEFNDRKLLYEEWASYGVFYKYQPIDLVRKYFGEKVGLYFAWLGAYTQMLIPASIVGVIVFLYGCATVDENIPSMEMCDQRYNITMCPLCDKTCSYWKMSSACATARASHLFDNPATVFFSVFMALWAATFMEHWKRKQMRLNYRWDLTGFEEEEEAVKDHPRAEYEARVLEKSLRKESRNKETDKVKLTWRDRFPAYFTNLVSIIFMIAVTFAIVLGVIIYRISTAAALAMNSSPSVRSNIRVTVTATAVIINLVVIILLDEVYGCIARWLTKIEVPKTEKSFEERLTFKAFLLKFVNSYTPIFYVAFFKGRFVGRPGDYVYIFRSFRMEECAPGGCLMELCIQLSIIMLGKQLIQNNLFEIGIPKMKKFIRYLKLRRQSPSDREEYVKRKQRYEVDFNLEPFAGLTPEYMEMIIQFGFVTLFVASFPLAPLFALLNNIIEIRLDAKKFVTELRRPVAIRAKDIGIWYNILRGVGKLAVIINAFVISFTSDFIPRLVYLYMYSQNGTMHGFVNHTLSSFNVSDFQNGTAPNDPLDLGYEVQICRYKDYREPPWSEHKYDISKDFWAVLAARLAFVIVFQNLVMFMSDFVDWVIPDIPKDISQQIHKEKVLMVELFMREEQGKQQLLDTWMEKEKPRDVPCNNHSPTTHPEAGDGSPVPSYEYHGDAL
Test: Inside-out patch recording of 1PBC block, wild-type TMEM16A
Assay type: cell-based
Conditions: for remaining activity at 1 µM / remaining activity at 3 µM: read-out: I/Imax
Procedure: HEK293T cells (ATCC CRL-1573) were maintained in Dulbecco’s modified Eagle’s medium (DMEM; Sigma-Aldrich) supplemented with 10 U ml^−1 penicillin, 0.1 mg ml^−1 streptomycin (Sigma-Aldrich), 2 mM L-glutamine (Sigma-Aldrich), and 10% FBS (Sigma-Aldrich) in a humidified atmosphere containing 5% CO2 at 37 °C. HEK293S GnTI^− cells (ATCC CRL-3022) were maintained in HyClone HyCell TransFx-H medium (GE Healthcare) supplemented with 10 U ml^−1 penicillin, 0.1 mg ml^−1 streptomycin, 4 mM L-glutamine, 0.15% poloxamer 188 (Sigma-Aldrich), and 1% FBS in an atmosphere containing 5% CO2 at 185 rpm at 37 °C. The ac splice variant of mouse TMEM16A (UniProt ID: Q8BHY3), mouse TMEM16B (UniProt ID: Q8CFW1), or mouse TMEM16F (UniProt ID: Q6P9J9) bearing a 3C cleavage site, a Venus YFP, a Myc tag, and a Streptavidin-binding peptide (SBP) downstream of the open reading frame in a modified pcDNA3.1 vector (Invitrogen) were used as described previously[21],[31]. Mutations were introduced using a modified QuikChange method[58] and were verified by sequencing.
HEK293T cells were transfected with 3–4 μg DNA per 6 cm Petri dish using the calcium phosphate co-precipitation method and were used within 24–96 h after transfection. Recordings were performed on inside-out patches excised from HEK293T cells expressing the construct of interest. Patch pipettes were pulled from borosilicate glass capillaries (O.D. 1.5 mm, I.D. 0.86 mm, Sutter Instrument) and were fire-polished with a microforge (Narishige) before use. Pipette resistance was typically 3–8 MΩ when filled with the recording solutions detailed below. Seal resistance was typically 4 GΩ or higher. Voltage-clamp recordings were made using Axopatch 200B, Digidata 1550, and Clampex 10.7 (Molecular Devices). Analog signals were filtered with the in-built 4-pole Bessel filter at 10 kHz and were digitized at 20 kHz. Solution exchange was achieved using a gravity-fed system through a theta glass pipette mounted on an ultra-fast piezo-driven stepper (Siskiyou). […] All recordings were performed at 20 °C.
A symmetrical ionic condition was used throughout. Stock solution with Ca^2+-EGTA contained 150 mM NaCl, 5.99 mM Ca(OH)2, 5 mM EGTA, and 10 mM HEPES at pH 7.40. Stock solution with EGTA contained 150 mM NaCl, 5 mM EGTA, and 10 mM HEPES at pH 7.40. Free Ca^2+ concentrations were adjusted by mixing the stock solutions at the required ratios calculated using the WEBMAXC program (http://web.stanford.edu/~cpatton/webmaxcS.htm). Patch pipettes were filled with the stock solution with Ca^2+-EGTA, which has a free Ca^2+ concentration of 1 mM. 1PBC (ChemBridge) stock was reconstituted in anhydrous DMSO (Sigma-Aldrich) at 100 mM and stored at −20 °C. Working solutions with 1PBC were prepared by serial dilution. Unless otherwise stated, experiments were performed at a saturating Ca^2+ concentration as shown in Supplementary Table 1 and the primary data were corrected for current rundown as described previously[21],[25].
Concentration-response relations, obtained from the ratio of the I-V plots before and after the application of the blocker, were fitted to the Hill equation,1 I/Imax=1/1+IC50/[blocker]^h where I/Imax is the normalized current responses, IC50 defines the concentration at which inhibition is at its half-maximum, and h is the Hill coefficient.

N#Cc1c(C(F)(F)F)cc(O)n2c1nc1ccccc12 [1PBC]
Hill coefficient for 1PBC block: 1 | IC50 (0 mV, 2 µM Ca2+): 4.4 µM | IC50 (0.4 μM Ca2+, 80 mV, empirical Hill fit of data scaled to open probability): 3.2 µM | IC50 (0.8 μM Ca2+, 80 mV, empirical Hill fit of data scaled to open probability): 2.13 µM | Steady-state current (normalized) (1 µM 1PBC, 0 mV, 2 µM Ca2+): 0.001783 | remaining activity at 1 µM (1 µM 1PBC, 0 mV, 2 µM Ca2+): 73% | I/Imax scaled to open probability (1 µM 1PBC, 400 nM Ca2+, 80 mV): 0.3757 | I/Imax scaled to open probability (1 µM 1PBC, 800 nM Ca2+, 80 mV): 0.4419 | I/Imax scaled to open probability (1 µM 1PBC, 2 µM Ca2+, 80 mV): 0.5218 | Steady-state current (normalized) (1 µM 1PBC, 20 mV, 2 µM Ca2+): 0.134 | remaining activity at 1 µM (1 µM 1PBC, 20 mV, 2 µM Ca2+): 68.9% | Steady-state current (normalized) (1 µM 1PBC, 40 mV, 2 µM Ca2+): 0.2463 | remaining activity at 1 µM (1 µM 1PBC, 40 mV, 2 µM Ca2+): 65.3% | Steady-state current (normalized) (1 µM 1PBC, 60 mV, 2 µM Ca2+): 0.3454 | remaining activity at 1 µM (1 µM 1PBC, 60 mV, 2 µM Ca2+): 62.6% | Steady-state current (normalized) (1 µM 1PBC, 80 mV, 2 µM Ca2+): 0.4256 | remaining activity at 1 µM (1 µM 1PBC, 80 mV, 2 µM Ca2+): 60.1% | Steady-state current (normalized) (1 µM 1PBC, 100 mV, 2 µM Ca2+): 0.5103 | remaining activity at 1 µM (1 µM 1PBC, 100 mV, 2 µM Ca2+): 60.1% | Steady-state current (normalized) (1 µM 1PBC, 120 mV, 2 µM Ca2+): 0.5951 | remaining activity at 1 µM (1 µM 1PBC, 120 mV, 2 µM Ca2+): 61.1% | Steady-state current (normalized) (1 µM 1PBC, 140 mV, 2 µM Ca2+): 0.7035 | remaining activity at 1 µM (1 µM 1PBC, 140 mV, 2 µM Ca2+): 64.7% | Steady-state current (normalized) (1 µM 1PBC, -20 mV, 2 µM Ca2+): -0.1486 | remaining activity at 1 µM (1 µM 1PBC, -20 mV, 2 µM Ca2+): 77.2% | Steady-state current (normalized) (1 µM 1PBC, -40 mV, 2 µM Ca2+): -0.3126 | remaining activity at 1 µM (1 µM 1PBC, -40 mV, 2 µM Ca2+): 80.5% | Steady-state current (normalized) (1 µM 1PBC, -60 mV, 2 µM Ca2+): -0.4807 | remaining activity at 1 µM (1 µM 1PBC, -60 mV, 2 µM Ca2+): 83% | Steady-state current (normalized) (1 µM 1PBC, -80 mV, 2 µM Ca2+): -0.661 | remaining activity at 1 µM (1 µM 1PBC, -80 mV, 2 µM Ca2+): 86.1% | Steady-state current (normalized) (1 µM 1PBC, -100 mV, 2 µM Ca2+): -0.836 | remaining activity at 1 µM (1 µM 1PBC, -100 mV, 2 µM Ca2+): 88% | Steady-state current (normalized) (1 µM 1PBC, -120 mV, 2 µM Ca2+): -1.004 | remaining activity at 1 µM (1 µM 1PBC, -120 mV, 2 µM Ca2+): 89.7% | Steady-state current (normalized) (1 µM 1PBC, -140 mV, 2 µM Ca2+): -1.145 | remaining activity at 1 µM (1 µM 1PBC, -140 mV, 2 µM Ca2+): 89.1% | IC50 (2 μM Ca2+, 80 mV, empirical Hill fit of data scaled to open probability): 1.94 µM | Steady-state current (normalized) (3 µM 1PBC, 0 mV, 2 µM Ca2+): 0.001316 | remaining activity at 3 µM (3 µM 1PBC, 0 mV, 2 µM Ca2+): 53.9% | I/Imax scaled to open probability (3 µM 1PBC, 400 nM Ca2+, 80 mV): 0.2553 | I/Imax scaled to open probability (3 µM 1PBC, 800 nM Ca2+, 80 mV): 0.2864 | I/Imax scaled to open probability (3 µM 1PBC, 2 µM Ca2+, 80 mV): 0.3306 | Steady-state current (normalized) (3 µM 1PBC, 20 mV, 2 µM Ca2+): 0.0952 | remaining activity at 3 µM (3 µM 1PBC, 20 mV, 2 µM Ca2+): 48.9% | Steady-state current (normalized) (3 µM 1PBC, 40 mV, 2 µM Ca2+): 0.1678 | remaining activity at 3 µM (3 µM 1PBC, 40 mV, 2 µM Ca2+): 44.5%
